Laboratory results published in paper PMC10353390, “Biological and Structural Analyses of New Potent Allosteric Inhibitors of HIV-1 Integrase” (Antimicrobial Agents and Chemotherapy, 2023).
Read-outs that look alike come from different tables or passages of the source.

Columns and labels:
NL4-3 HIV-1 strain = test: Multiple-round infection assay in MT4 cells, NL4-3; type: cell-based
[1] = test system: HIV-1 strains resistant to INSTIs, NRTIs, NNRTIs or PIs; type: cell-based; details: for Fold change in EC50 relative to NL4-3, E92Q / Fold change in EC50 relative to NL4-3, G140S / Fold change in EC50 relative to NL4-3, G140S/Q148H / Fold change in EC50 relative to NL4-3, N155H / Fold change in EC50 relative to NL4-3, Q148H / Fold change in EC50 relative to NL4-3, Y143R / Fold change in EC50 relative to NL4-3, E92Q/N155H (pat.) / Fold change in EC50 relative to NL4-3, G140S/Q148H (pat.) / Fold change in EC50 relative to NL4-3, T97A/N155H (pat.): INSTI-resistant; for Fold change in EC50 relative to NL4-3, E92Q / Fold change in EC50 relative to NL4-3, G140S / Fold change in EC50 relative to NL4-3, G140S/Q148H / Fold change in EC50 relative to NL4-3, N155H / Fold change in EC50 relative to NL4-3, Q148H / Fold change in EC50 relative to NL4-3, Y143R / Fold change in EC50 relative to NL4-3, K103N/Y181C: NL4-3 background; for Fold change in EC50 relative to NL4-3, E92Q/N155H (pat.) / Fold change in EC50 relative to NL4-3, G140S/Q148H (pat.) / Fold change in EC50 relative to NL4-3, T97A/N155H (pat.): primary patient-derived strain; for Fold change in EC50 relative to NL4-3, NLAY351717: NRTI-resistant clone; for Fold change in EC50 relative to NL4-3, NLAY351753: NRTI/NNRTI-resistant clone; for Fold change in EC50 relative to NL4-3, K103N/Y181C: NRTI/NNRTIs group; for Fold change in EC50 relative to NL4-3, ARP-4595 / Fold change in EC50 relative to NL4-3, ARP-4596 / Fold change in EC50 relative to NL4-3, ARP-11801 / Fold change in EC50 relative to NL4-3, ARP-11803 / Fold change in EC50 relative to NL4-3, ARP-11807 / Fold change in EC50 relative to NL4-3, ARP-11808: PI-resistant virus
Procedure: To this end, we used both recombinant viruses constructed by introducing described drug resistance mutations into NL4-3 HIV-1 clone as well as drug-resistant clinical HIV-1 isolates.
(§1) MT4 cells growing exponentially at the density of 10^6/mL were infected with HIV-1 strain NL4-3 at a multiplicity of infection (MOI) of 0.001 for 2 h in the presence of different concentrations of compounds, and the CellTiter-Glo luminescent reagent (Promega) was used to quantify cell viability as described previously ([12]).

[2] = test system: NL4-3 HIV-1 with INLAI-selected IN single point mutations; type: cell-based
HXB2 HIV-1 strain = test: Multiple-round infection assay in MT4 cells, HXB2; type: cell-based; details: Human immunodeficiency virus 1, HXB2, MT4, read-out: EC50 HXB2
Procedure: Antiretroviral activity of BDM-2 and its analogs was first evaluated in lymphoblastoid cell line MT4 and in primary human T lymphocytes using NL4-3 and HXB2 laboratory HIV-1 isolates.
as §1

[3] = Cytotoxicity assay in MT4 cells; type: cell-based; details: human, MT4 cells (proliferating human T-cell line), CellTiter-Glo
Text: Growth inhibition was monitored in a proliferating human T-cell line (MT4) with different concentrations of compounds, using the CellTiter-Glo luminescent reagent (Promega), as previously described ([12]).

[4] = test system: lab-adapted and clinical HIV-1 isolates; test: Infection assays in primary T CD4+ lymphocytes; type: cell-based; details: Human immunodeficiency virus 1, Lymphocyte
[5] = test system: VSV-G-pseudotyped NL4-3Δenv-luc; test: microbe, parasite or virus in culture; type: cell-based, HIV-1; details: Human immunodeficiency virus 1, NL43, MT4, read-out: EC50 in single-round infection

| Structure (SMILES) | Fold change in EC50 relative to NL4-3, E92Q [1] | Fold change in EC50 relative to NL4-3, G140S [1] | Fold change in EC50 relative to NL4-3, G140S/Q148H [1] | Fold change in EC50 relative to NL4-3, N155H [1] | Fold change in EC50 relative to NL4-3, Q148H [1] | Fold change in EC50 relative to NL4-3, Y143R [1] | Fold change in EC50 relative to NL4-3, E92Q/N155H (pat.) [1] | Fold change in EC50 relative to NL4-3, G140S/Q148H (pat.) [1] | Fold change in EC50 relative to NL4-3, T97A/N155H (pat.) [1] | Fold change in EC50 relative to NL4-3, NLAY351717 [1] | Fold change in EC50 relative to NL4-3, NLAY351753 [1] | Fold change in EC50 relative to NL4-3, K103N/Y181C [1] | Fold change in EC50 relative to NL4-3, ARP-4595 [1] | Fold change in EC50 relative to NL4-3, ARP-4596 [1] | Fold change in EC50 relative to NL4-3, ARP-11801 [1] | Fold change in EC50 relative to NL4-3, ARP-11803 [1] | Fold change in EC50 relative to NL4-3, ARP-11807 [1] | Fold change in EC50 relative to NL4-3, ARP-11808 [1] | other results |
| --- | --- | --- | --- | --- | --- | --- | --- | --- | --- | --- | --- | --- | --- | --- | --- | --- | --- | --- | --- |
| COc1cc2c(cc1Cc1cccc(Cl)c1F)c(=O)c(C(=O)O)cn2[C@H](CO)C(C)C [EVG, elvitegravir] | 24 | 2 | 2500 | 12 | 3 | 2 | 200 | 2000 | 440 | 1 | 1 | 1 | 1 | 1 | 1 | 1 | 2 | 2 | EC50 (NL4-3 HIV-1 strain; Human immunodeficiency virus 1, NL43, MT4, wild type NL4-3, Table 9, read-out: EC50 NL4-3): 2.2 ± 1.2 nM; EC50 fold change compared to wild type NL4-3, A128T ([2]; NL4-3 IN A128T): 1; EC50 fold change compared to wild type NL4-3, H171Q ([2]; NL4-3 IN H171Q): 1; EC50 fold change compared to wild type NL4-3, N222K ([2]; NL4-3 IN N222K): 1; EC50 fold change compared to wild type NL4-3, T174I ([2]; NL4-3 IN T174I): 1; EC50 fold change compared to wild type NL4-3, Y99H ([2]; NL4-3 IN Y99H): 1 |
| CC(C)(C)NC(=O)[C@@H]1CN(Cc2cccnc2)CCN1C[C@@H](O)C[C@@H](Cc1ccccc1)C(=O)N[C@H]1c2ccccc2C[C@H]1O [IDV, indinavir] | 1 |  | 1 | 1 |  | 1 |  |  |  | 1 | 1 | 1 | 5 | 8 | 92 | 260 | 36 | 59 |  |
| Cc1nnc(C(=O)NC(C)(C)c2nc(C(=O)NCc3ccc(F)cc3)c(O)c(=O)n2C)o1 [RAL, raltegravir] |  |  |  |  |  |  |  |  |  |  |  |  |  |  |  |  |  |  | EC50 (HXB2 HIV-1 strain): 8.7 ± 6 nM; EC50 (NL4-3 HIV-1 strain; Human immunodeficiency virus 1, NL43, MT4, read-out: EC50 NL4-3): 14 ± 9 nM; EC90 (NL4-3 HIV-1 strain; Human immunodeficiency virus 1, NL43, MT4, read-out: EC90 NL4-3): 28 ± 14 nM; CC50 [3]: 438000 ± 29000 nM; EC50 ([4]; read-out: EC50 33913N (B)): 2.1 ± 0.1 nM; EC50 ([4]; read-out: EC50 HXB2 (B)): 2.6 ± 1.4 nM; EC50 ([4]; read-out: EC50 KER2008 (A)): 6.7 ± 4 nM; EC50 ([4]; read-out: EC50 NL4-3 (B)): 4.9 ± 2.3 nM; EC50 ([4]; read-out: EC50 NP1525 (CRF01_AE)): 4 ± 1.7 nM; EC50 ([4]; read-out: EC50 NP1538 (B)): 1.7 ± 1.9 nM; EC50 [5]: 3.5 ± 1 nM |
| Cc1cc(/C=C/C#N)cc(C)c1Nc1ccnc(Nc2ccc(C#N)cc2)n1 [RPV, rilpivirine] |  | 1 | 1 |  | 1 |  | 1 | 1 | 1 | 1 | 0.4 | 3 | 1 | 1 | 0.4 | 1 | 1 | 1 |  |
